The values that follow come from patent US20240423207A1, “PICOLINAMIDE COMPOUNDS WITH FUNGICIDAL ACTIVITY” (CORTEVA AGRISCIENCE LLC, priority 2014, published 2024).

What all share (type): in vivo
The test system of one assay is Leptosphaeria nodorum. The assay can be described thus: Wheat Glume Blotch (LEPTNO) fungicidal activity on wheat seedlings. As to conditions: Parastagonospora nodorum, 24 h, 1 Day Protectant, read-out: LEPTNO 1 DP disease control. How it is done: Technical grades of materials were dissolved in acetone, which were then mixed with nine volumes of water (H2O) containing 110 ppm Triton X-100. The fungicide solutions were applied onto wheat seedlings using an automated booth sprayer to run-off. All sprayed plants were allowed to air dry prior to further handling. All fungicides were evaluated using the aforementioned method for their activity vs. all target diseases, unless stated otherwise. Wheat leaf blotch and brown rust activity were also evaluated using track spray applications, in which case the fungicides were formulated as EC formulations, containing 0.1% Trycol 5941 in the spray solutions. Wheat plants (variety Yuma) were grown from seed in a greenhouse in 50% mineral soil/50% soil-less Metro mix until the first leaf was fully emerged, with 7-10 seedlings per pot. These plants were inoculated with an aqueous spore suspension of Septoria tritici either prior to or after fungicide treatments. After inoculation the plants were kept in 100% relative humidity (one day in a dark dew chamber followed by two to three days in a lighted dew chamber at 20° C.) to permit spores to germinate and infect the leaf. The plants were then transferred to a greenhouse set at 20° C. for disease to develop. When disease symptoms were fully expressed on the 1st leaves of untreated plants, infection levels were assessed on a scale of 0 to 100 percent disease severity. Percent disease control was calculated using the ratio of disease severity on treated plants relative to untreated plants. Example C: Evaluation of Fungicidal Activity: Wheat Glume Blotch (Leptosphaeria nodorum; Bayer code […]) Wheat plants (variety Yuma) were grown from seed in a greenhouse in 50% mineral soil/50% soil-less Metro mix until the first leaf was fully emerged, with 7-10 seedlings per pot. These plants were inoculated with an aqueous spore suspension of Leptosphaeria nodorum 24 h after fungicide treatments. After inoculation the plants were kept in 100% relative humidity (one day in a dark dew chamber followed by two days in a lighted dew chamber at 20° C.) to permit spores to germinate and infect the leaf. The plants were then transferred to a greenhouse set at 20° C. for disease to develop. Fungicide formulation, application and disease assessment followed the procedures as described in the Example A.

A further assay concerns Cercospora beticola. Put plainly: Leaf Spot of Sugar Beets (CERCBE) fungicidal activity on sugar beet plants. Particulars: 24 h, 1 Day Protectant, read-out: CERCBE 1 DP disease control. The method, then: Technical grades of materials were dissolved in acetone, which were then mixed with nine volumes of water (H2O) containing 110 ppm Triton X-100. The fungicide solutions were applied onto wheat seedlings using an automated booth sprayer to run-off. All sprayed plants were allowed to air dry prior to further handling. All fungicides were evaluated using the aforementioned method for their activity vs. all target diseases, unless stated otherwise. Wheat leaf blotch and brown rust activity were also evaluated using track spray applications, in which case the fungicides were formulated as EC formulations, containing 0.1% Trycol 5941 in the spray solutions. Wheat plants (variety Yuma) were grown from seed in a greenhouse in 50% mineral soil/50% soil-less Metro mix until the first leaf was fully emerged, with 7-10 seedlings per pot. These plants were inoculated with an aqueous spore suspension of Septoria tritici either prior to or after fungicide treatments. After inoculation the plants were kept in 100% relative humidity (one day in a dark dew chamber followed by two to three days in a lighted dew chamber at 20° C.) to permit spores to germinate and infect the leaf. The plants were then transferred to a greenhouse set at 20° C. for disease to develop. When disease symptoms were fully expressed on the 1st leaves of untreated plants, infection levels were assessed on a scale of 0 to 100 percent disease severity. Percent disease control was calculated using the ratio of disease severity on treated plants relative to untreated plants. Example E: Evaluation of Fungicidal Activity: Leaf Spot of Sugar Beets (Cercospora beticola; Bayer code CERCBE) Sugar beet plants (variety HH88) were grown in soil-less Metro mix and trimmed regularly to maintain a uniform plant size prior to test. Plants were inoculated with a spore suspension 24 h after fungicide treatments. Inoculated plants were kept in a dew chamber at 22° C. for 48 h then incubated in a greenhouse set at 24° C. under a clear plastic hood with bottom ventilation until disease symptoms were fully expressed. Fungicide formulation, application and disease assessment on the sprayed leaves followed the procedures as described in the Example A.

The next assay has as its system Rhyncosporium secalis. Put plainly: Barley Scald (RHYNSE) fungicidal activity on barley seedlings. Particulars: Hordeum vulgare, 24 h, 1 Day Protectant, read-out: RHYNSE 1 DP disease control. The method, then:
Technical grades of materials were dissolved in acetone, which were then mixed with nine volumes of water (H2O) containing 110 ppm Triton X-100. The fungicide solutions were applied onto wheat seedlings using an automated booth sprayer to run-off. All sprayed plants were allowed to air dry prior to further handling. All fungicides were evaluated using the aforementioned method for their activity vs. all target diseases, unless stated otherwise. Wheat leaf blotch and brown rust activity were also evaluated using track spray applications, in which case the fungicides were formulated as EC formulations, containing 0.1% Trycol 5941 in the spray solutions. Wheat plants (variety Yuma) were grown from seed in a greenhouse in 50% mineral soil/50% soil-less Metro mix until the first leaf was fully emerged, with 7-10 seedlings per pot. These plants were inoculated with an aqueous spore suspension of Septoria tritici either prior to or after fungicide treatments. After inoculation the plants were kept in 100% relative humidity (one day in a dark dew chamber followed by two to three days in a lighted dew chamber at 20° C.) to permit spores to germinate and infect the leaf. The plants were then transferred to a greenhouse set at 20° C. for disease to develop. When disease symptoms were fully expressed on the 1st leaves of untreated plants, infection levels were assessed on a scale of 0 to 100 percent disease severity. Percent disease control was calculated using the ratio of disease severity on treated plants relative to untreated plants. Example G: Evaluation of Fungicidal Activity: Barley Scald (Rhyncosporium secalis; Bayer code […]) Barley seedlings (variety Harrington) were propagated in soil-less Metro mix, with each pot having 8 to 12 plants, and used in the test when the first leaf was fully emerged. Test plants were inoculated by an aqueous spore suspension of Rhyncosporium secalis 24 h after fungicide treatments. After inoculation the plants were kept in a dew room at 20° C. with 100% relative humidity for 48 h. The plants were then transferred to a greenhouse set at 20° C. for disease to develop. Fungicide formulation, application and disease assessment on the sprayed leaves followed the procedures as described in the Example A.

With `COc1ccnc(C(=O)N[C@@H](C)C(=O)O[C@@H](C)C(c2ccc(Cl)cc2)c2ccc(Cl)cc2)c1OC(C)=O` [Cmpd 174], the pest or weed control at 100 ppm in the assay with Leptosphaeria nodorum, with Cercospora beticola and in the assay on Rhyncosporium secalis was above 80% throughout.

With `COc1ccnc(C(=O)N[C@@H](C)C(=O)O[C@@H](C)C(c2ccccc2)c2ccccc2)c1OC(C)=O` [Cmpd 139, (S)-(S)-1,1-diphenylpropan-2-yl 2-(3-acetoxy-4-methoxypicolinamido)propanoate], the pest or weed control at 100 ppm with Leptosphaeria nodorum, in the assay with Cercospora beticola and in the assay with Rhyncosporium secalis was above 80% each time.

Regarding `COc1ccnc(C(=O)N[C@@H](C)C(=O)O[C@@H](C)C(c2ccccc2)c2ccccc2)c1OCOC(C)=O` [Cmpd 141, (S)-(S)-1,1-diphenylpropan-2-yl 2-(3-(acetoxymethoxy)-4-methoxypicolinamido)propanoate], the pest or weed control at 100 ppm in the assay on Leptosphaeria nodorum, in the assay on Cercospora beticola and with Rhyncosporium secalis was above 80% each time.

As to `COc1ccnc(C(=O)N[C@@H](C)C(=O)O[C@@H](C)C(c2ccc(F)cc2F)c2ccc(F)cc2F)c1OC(C)=O` [Cmpd 150], the pest or weed control at 100 ppm in the assay on Leptosphaeria nodorum, in the assay on Cercospora beticola and in the assay with Rhyncosporium secalis was above 80% in each case.

`COc1ccnc(C(=O)N[C@@H](C)C(=O)O[C@@H](C)C(c2ccccc2)c2ccccc2)c1OC(=O)C(C)C` [Cmpd 140]: the pest or weed control at 100 ppm with Leptosphaeria nodorum and in the assay on Cercospora beticola was above 80% throughout.

`COc1ccnc(C(=O)N[C@@H](C)C(=O)O[C@@H](C)C(c2ccc(F)cc2F)c2ccc(F)cc2F)c1OCOC(C)=O` [Cmpd 148]: the pest or weed control at 100 ppm in the assay with Leptosphaeria nodorum, in the assay with Cercospora beticola and in the assay on Rhyncosporium secalis was above 80% in each case.

Take `COc1ccnc(C(=O)N[C@@H](C)C(=O)O[C@@H](C)C(c2ccc(F)cc2)c2ccc(F)cc2)c1OC(C)=O` [Cmpd 145]: the pest or weed control at 100 ppm in the assay with Leptosphaeria nodorum, in the assay on Cercospora beticola and in the assay on Rhyncosporium secalis was above 80% throughout.

As to `COc1ccnc(C(=O)N[C@@H](C)C(=O)O[C@@H](C)C(c2ccc(Cl)cc2)c2ccc(Cl)cc2)c1OCOC(C)=O` [Cmpd 176], the pest or weed control at 100 ppm with Leptosphaeria nodorum, with Cercospora beticola and in the assay on Rhyncosporium secalis was above 80% each time.

Take `COc1ccnc(C(=O)N[C@@H](C)C(=O)O[C@@H](C)C(c2ccc(F)cc2)c2ccc(F)cc2)c1OCOC(C)=O` [Cmpd 146]: the pest or weed control at 100 ppm in the assay with Leptosphaeria nodorum, with Cercospora beticola and in the assay with Rhyncosporium secalis was above 80% in each case.

`COc1ccnc(C(=O)N[C@@H](C)C(=O)O[C@@H](C)C(c2ccccc2)c2ccccc2)c1OCOC(=O)C(C)C` [Cmpd 142, (S)-(S)-1,1-diphenylpropan-2-yl 2-(3-((isobutyryloxy)methoxy)-4-methoxypicolinamido)propanoate]: the pest or weed control at 100 ppm in the assay on Leptosphaeria nodorum, in the assay with Cercospora beticola and in the assay with Rhyncosporium secalis was above 80% each time.
